Experimental data published in patent US20250277012A1 (Protagonist Therapeutics, Inc., priority 2021, published 2025).
Like-named read-outs stand apart in the source and are kept apart here. Starred links: 1 amine or outer side, 2 acyl side, 3 side chain; linkers in the order of their positions; H or OH if unused. Positions of bridges follow the written chain, without caps; N, C: chain ends. Non-standard residues stand in square brackets, D forms with d. Residues, ends and D or L forms follow the SMILES beside them. Groups on a side chain read outwards from the residue. *: point of attachment. C18 diacid = O=C(O)CCCCCCCCCCCCCCCCC(=O)*; Dip = N[C@H](C(=O)O)C(c1ccccc1)c1ccccc1; γGlu = O=C(O)[C@H](CCC(=O)[*:2])N[*:1]; Palmitoyl = CCCCCCCCCCCCCCCC(=O)*; NMeF = CN[C@@H](Cc1ccccc1)C(=O)O; NMeT = CN[C@H](C(=O)O)[C@@H](C)O; β3hF = N[C@H](CC(=O)O)Cc1ccccc1; NMeK = CN[C@@H](CCCCN)C(=O)O; Pen = CC(C)(S)[C@H](N)C(=O)O; dNMeK = CN[C@H](CCCCN)C(=O)O; Isovaleryl = CC(C)CC(=O)*; NMeC = CN[C@@H](CS)C(=O)O; hCys = N[C@@H](CCS)C(=O)O; Dap = NC[C@H](N)C(=O)O; AEEA = NCCOCCOCC(=O)O; Ahx = NCCCCCC(=O)O

Molecular target: T1, ferroportin (Homo sapiens, UniProt Q9NP59)
T1 sequence (Q9NP59 1-571): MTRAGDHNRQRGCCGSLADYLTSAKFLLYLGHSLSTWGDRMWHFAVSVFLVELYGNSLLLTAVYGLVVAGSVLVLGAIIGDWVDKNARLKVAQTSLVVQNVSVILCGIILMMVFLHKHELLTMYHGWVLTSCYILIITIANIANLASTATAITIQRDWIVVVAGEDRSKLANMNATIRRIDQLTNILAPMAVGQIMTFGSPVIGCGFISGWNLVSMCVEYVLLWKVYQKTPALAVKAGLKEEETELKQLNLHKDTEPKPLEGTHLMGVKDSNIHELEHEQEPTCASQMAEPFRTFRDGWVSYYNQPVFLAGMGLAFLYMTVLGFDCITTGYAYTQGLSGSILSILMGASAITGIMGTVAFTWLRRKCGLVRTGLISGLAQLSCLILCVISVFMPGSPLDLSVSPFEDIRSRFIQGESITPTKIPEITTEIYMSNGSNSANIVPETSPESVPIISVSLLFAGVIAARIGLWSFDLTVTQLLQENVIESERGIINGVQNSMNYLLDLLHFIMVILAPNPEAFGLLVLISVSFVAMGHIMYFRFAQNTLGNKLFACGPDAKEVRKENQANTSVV
Assay: FPN activity assay: ferroportin-GFP internalization/degradation in HEK293 cells
Format: cell-based
Design: expressed in transfected cells
Conditions: read-out: FPN IC50
Experimental: Following internalization, the ferroporin protein is degraded.
A retro inverse peptide is a peptide with a reversed sequence in all D amino acids. An example is that Hy-Glu-Thr-His-NH2 becomes Hy-DHis-DThr-DGlu-NH2. The EC50 of these reference compounds for ferroportin internalization/degradation was determined according to the FPN activity assay described above. These peptides served as control standards.

[1] = ferroportin-GFP internalization/degradation, HEK293 cells, Table 6E
[2] = ferroportin-GFP HEK293 cells, at least 18 hours

| SMILES | DC50 [2] | also measured |
| --- | --- | --- |
| CC(C)CC(=O)N[C@@H](CCC(=O)O)C(=O)N[C@H](C(=O)N[C@@H](Cc1c[nH]cn1)C(=O)N[C@H](C(=O)N1CCC[C@H]1C(=O)N[C@H]1CSSC[C@@H](C(=O)N(C)[C@@H](CCCCNC(=O)COCCOCCNC(=O)COCCOCCNC(=O)[C@H](CN)NC(=O)CCCCCCCCCCCCCCCCC(=O)O)C(=O)N(C)[C@@H](Cc2ccccc2)C(=O)N(C)[C@@H](CCCCN)C(N)=O)N(C)C1=O)C(c1ccccc1)c1ccccc1)[C@@H](C)O [compound 277] (Isovaleryl-ETH[Dip]PC[NMeC][NMeK]([AEEA-AEEA-Dap-C18 diacid])[NMeF][NMeK]-NH2; disulfide 6-7) |  | DC50 [1]: 10 to 100 nM |
| CC(C)CC(=O)N[C@@H](CCC(=O)O)C(=O)N[C@H](C(=O)N[C@@H](Cc1c[nH]cn1)C(=O)N[C@H](C(=O)N1CCC[C@H]1C(=O)N[C@@H]1C(=O)N[C@H](C(=O)N(C)[C@@H](CCCCNC(=O)COCCOCCNC(=O)COCCOCCNC(=O)[C@H](CN)NC(=O)CCCCCCCCCCCCCCCCC(=O)O)C(=O)N[C@H](CC(=O)N[C@H](CCCCN)C(N)=O)Cc2ccccc2)CSSC1(C)C)C(c1ccccc1)c1ccccc1)[C@@H](C)O [compound 271] (Isovaleryl-ETH[Dip]P[Pen]C[NMeK]([AEEA-AEEA-Dap-C18 diacid])[β3hF][dK]-NH2; disulfide 6-7) |  | DC50 [1]: 10 to 100 nM |
| CCCCCCCCCCCCCCCC(=O)NCCCCCC(=O)NCCCC[C@H](NC(=O)C[C@H](Cc1ccccc1)NC(=O)[C@@H]1CCSSCC[C@H](NC(=O)CC(C)C)C(=O)N[C@@H]([C@@H](C)O)C(=O)N[C@@H](Cc2cnc[nH]2)C(=O)N[C@@H](C(c2ccccc2)c2ccccc2)C(=O)N2CCC[C@H]2C(=O)N[C@@H](C)C(=O)N[C@@H]([C@@H](C)CC)C(=O)N1)C(=O)N[C@H](CCCCN)C(N)=O [compound 111] (Isovaleryl-[hCys]TH[Dip]PAI[hCys][β3hF]K([Ahx-Palmitoyl])[dK]-NH2; disulfide 1-8) | 10 to 100 nM |  |
| CC(C)CC(=O)N[C@@H](CCC(=O)O)C(=O)N[C@H](C(=O)N[C@@H](Cc1c[nH]cn1)C(=O)N[C@H](C(=O)N1CCC[C@H]1C(=O)N[C@H]1CSSC[C@@H](C(=O)N(C)[C@@H](CCCCNC(=O)COCCOCCNC(=O)COCCOCCNC(=O)[C@H](CN)NC(=O)CCCCCCCCCCCCCCCCC(=O)O)C(=O)N[C@H](CC(=O)N(C)[C@H](CCCCN)C(N)=O)Cc2ccccc2)NC1=O)C(c1ccccc1)c1ccccc1)[C@@H](C)O [compound 276] (Isovaleryl-ETH[Dip]PCC[NMeK]([AEEA-AEEA-Dap-C18 diacid])[β3hF][dNMeK]-NH2; disulfide 6-7) |  | DC50 [1]: 10 to 100 nM |
| CC[C@H](C)[C@H](NC(=O)[C@@H]1CSSC[C@H](NC(=O)[C@H](Cc2c[nH]cn2)NC(=O)[C@@H](NC(=O)[C@H](CCC(=O)O)NC(=O)CC(C)C)[C@@H](C)O)C(=O)N2CCC[C@H]2C(=O)N1)C(=O)N[C@H](CCCCN)C(=O)N[C@H](CC(=O)N[C@@H](CCCCNC(=O)COCCOCCNC(=O)COCCOCCNC(=O)CC[C@H](NC(=O)CCCCCCCCCCCCCCCCC(=O)O)C(=O)O)C(=O)N[C@H](CCCCN)C(N)=O)Cc1ccccc1 [Compd 33] (Isovaleryl-ETHCPCI[dK][β3hF]K([AEEA-AEEA-γGlu-C18 diacid])[dK]-NH2; disulfide 4-6) | > 500 nM |  |
| COC(=O)CC[C@H](NC(=O)CC(C)C)C(=O)N(C)[C@H](C(=O)N[C@@H](Cc1c[nH]cn1)C(=O)N[C@H](C(=O)N1CCC[C@H]1C(=O)N[C@H]1CSSC[C@@H](C(=O)N(C)[C@@H](Cc2ccccc2)C(N)=O)NC1=O)C(c1ccccc1)c1ccccc1)[C@@H](C)O [compound 184] (Isovaleryl-E(OMe)[NMeT]H[Dip]PCC[NMeF]-NH2; disulfide 6-7) |  | DC50 (Table 6E, ferroportin-GFP internalization/degradation, at least 18 hours incubation): > 500 nM |
| CC(C)CC(=O)N[C@@H](CCC(=O)O)C(=O)N[C@H](C(=O)N[C@@H](Cc1c[nH]cn1)C(=O)N[C@H](C(=O)N1CCC[C@H]1C(=O)N[C@H]1CSSC[C@@H](C(=O)N(C)[C@@H](CCCCNC(=O)COCCOCCNC(=O)COCCOCCNC(=O)[C@H](CN)NC(=O)CCCCCCCCCCCCCCCCC(=O)O)C(=O)N(C)[C@@H](Cc2ccccc2)C(=O)N[C@H](CCCCN)C(N)=O)N(C)C1=O)C(c1ccccc1)c1ccccc1)[C@@H](C)O [compound 281] (Isovaleryl-ETH[Dip]PC[NMeC][NMeK]([AEEA-AEEA-Dap-C18 diacid])[NMeF][dK]-NH2; disulfide 6-7) |  | DC50 [1]: 100 to 500 nM |
| CC[C@H](C)[C@H](NC(=O)[C@@H]1CSSC[C@H](NC(=O)[C@H](Cc2c[nH]cn2)NC(=O)[C@@H](NC(=O)[C@H](CCC(=O)O)NC(=O)CC(C)C)[C@@H](C)O)C(=O)N2CCC[C@H]2C(=O)N1)C(=O)N[C@H](CCCCN)C(=O)N[C@H](CC(=O)N[C@@H](CCCCNC(=O)COCCOCCNC(=O)COCCOCCNC(=O)CCCCCNC(=O)CCCCCCCCCCCCCCCCC(=O)O)C(=O)N[C@H](CCCCN)C(N)=O)Cc1ccccc1 [Compd 24] (Isovaleryl-ETHCPCI[dK][β3hF]K([AEEA-AEEA-Ahx-C18 diacid])[dK]-NH2; disulfide 4-6) | 100 to 500 nM |  |
| CCCCCCCCCCCCCCCC(=O)NCCCCCC(=O)NCCCC[C@H](NC(=O)[C@@H](NC(=O)[C@@H]1CSSCC[C@H](NC(=O)CC(C)C)C(=O)N[C@@H](CCC(=O)O)C(=O)N[C@@H]([C@@H](C)O)C(=O)N[C@@H](Cc2c[nH]cn2)C(=O)N[C@@H](C(c2ccccc2)c2ccccc2)C(=O)N2CCC[C@H]2C(=O)N1)[C@@H](C)CC)C(=O)N[C@H](CC(N)=O)Cc1ccccc1 [Compd 13] (Isovaleryl-[hCys]ETH[Dip]PCIK([Ahx-Palmitoyl])[β3hF]-NH2; disulfide 1-7) | 100 to 500 nM |  |

More lines, main results first:

| DC50 [2] | SMILES | also measured |
| --- | --- | --- |
| 10 to 100 nM | CCCCCCCCCCCCCCCC(=O)N[C@@H](CCC(=O)NCCCC[C@H](NC(=O)[C@@H](NC(=O)[C@@H]1CSSC[C@H](NC(=O)[C@@H]2CCCN2C(=O)[C@H](Cc2ccccc2)NC(=O)[C@H](Cc2c[nH]cn2)NC(=O)[C@@H](NC(=O)[C@H](CC(=O)O)NC(=O)CC(C)C)[C@@H](C)O)C(=O)N1)[C@@H](C)CC)C(=O)N[C@@H](Cc1ccccc1)C(=O)N[C@@H](CCC(=O)O)C(=O)N1CCC[C@H]1C(=O)N[C@@H](CCCNC(=N)N)C(=O)O)C(=O)O [Compd 101] (Isovaleryl-DTHFPCCIK([γGlu-Palmitoyl])FEPR-OH; disulfide 6-7) |  |
| 10 to 100 nM | CCCCCCCCCCCCCCCC(=O)NCCCCCC(=O)NCCCC[C@H](NC(=O)C[C@H](Cc1ccccc1)NC(=O)[C@@H](CCCCN)NC(=O)[C@@H](NC(=O)[C@@H]1CSSC[C@H](NC(=O)[C@@H](NC(=O)[C@H](Cc2c[nH]cn2)NC(=O)[C@@H](NC(=O)[C@H](CCC(=O)O)NC(=O)CC(C)C)[C@@H](C)O)C(c2ccccc2)c2ccccc2)C(=O)N1)[C@@H](C)CC)C(=O)N[C@H](CCCCN)C(N)=O [Compd 4] (Isovaleryl-ETH[Dip]CCI[dK][β3hF]K([Ahx-Palmitoyl])[dK]-NH2; disulfide 5-6) |  |
| 10 to 100 nM | CCCCCCCCCCCCCCCC(=O)NCCCCCC(=O)NCCCC[C@H](NC(=O)C[C@H](Cc1ccccc1)NC(=O)[C@H]1CSSC[C@@H](NC(=O)CC(C)C)C(=O)N[C@@H]([C@@H](C)O)C(=O)N[C@@H](Cc2c[nH]cn2)C(=O)N[C@@H](C(c2ccccc2)c2ccccc2)C(=O)N2CCC[C@H]2C(=O)N[C@@H](C)C(=O)N[C@@H]([C@@H](C)CC)C(=O)N1)C(=O)N[C@H](CCCCN)C(N)=O [compound 105] (Isovaleryl-[dC]TH[Dip]PAI[dC][β3hF]K([Ahx-Palmitoyl])[dK]-NH2; disulfide 1-8) |  |
| > 500 nM | CCCCCCCCCCCCCCCC(=O)NCCCCCC(=O)NCCCC[C@H](NC(=O)[C@@H](NC(=O)[C@@H]1CSSC(C)(C)[C@H](N)C(=O)N[C@@H](CCC(=O)O)C(=O)N[C@@H]([C@@H](C)O)C(=O)N[C@@H](Cc2c[nH]cn2)C(=O)N[C@@H](C(c2ccccc2)c2ccccc2)C(=O)N2CCC[C@H]2C(=O)N1)[C@@H](C)CC)C(=O)N[C@H](CC(N)=O)Cc1ccccc1 [Compd 11] (H-[Pen]ETH[Dip]PCIK([Ahx-Palmitoyl])[β3hF]-NH2; disulfide 1-7) |  |
| 100 to 500 nM | CC[C@H](C)[C@H](NC(=O)[C@@H]1CSSC[C@H](NC(=O)[C@@H](NC(=O)[C@H](Cc2c[nH]cn2)NC(=O)[C@@H](NC(=O)[C@H](CCC(=O)O)NC(=O)CC(C)C)[C@@H](C)O)C(c2ccccc2)c2ccccc2)C(=O)N1)C(=O)N[C@H](CCCCN)C(=O)N[C@H](CC(=O)N[C@@H](CCCCNC(=O)COCCOCCNC(=O)COCCOCCNC(=O)CCCCCNC(=O)CCCCCCCCCCCCCCCCC(=O)O)C(=O)N[C@H](CCCCN)C(N)=O)Cc1ccccc1 [Compd 25] (Isovaleryl-ETH[Dip]CCI[dK][β3hF]K([AEEA-AEEA-Ahx-C18 diacid])[dK]-NH2; disulfide 5-6) |  |
| 10 to 100 nM | CCCCCCCCCCCCCCCC(=O)NCCCCCC(=O)NCCCC[C@H](NC(=O)C[C@H](Cc1ccccc1)NC(=O)[C@@H]1CSSC[C@H](NC(=O)[C@@H]2CCCN2C(=O)[C@@H](NC(=O)[C@H](Cc2c[nH]cn2)NC(=O)[C@@H](NC(=O)[C@H](CCC(=O)O)NC(=O)CC(C)C)[C@@H](C)O)C(c2ccccc2)c2ccccc2)C(=O)N[C@@H]([C@@H](C)CC)C(=O)N1)C(=O)N[C@H](CCCCN)C(N)=O [Compd 7] (Isovaleryl-ETH[Dip]PCIC[β3hF]K([Ahx-Palmitoyl])[dK]-NH2; disulfide 6-8) |  |
